Active and inactive are the calls of the source.
Experiments:
Assay type in all cases: functional
Vero = Vero cell cytotoxicity, cytotoxicity control for flavivirus capping enzyme inhibitors (AID 588742); conditions: Chlorocebus sabaeus
Hexokinase HKDC1 = biological target: T1, Hexokinase HKDC1 (Homo sapiens, UniProt Q2TB90); test: HKDC1 hexokinase inhibitors, dose response, biochemical, W721R variant (AID 504729)
T1 sequence (Q2TB90 whole entry): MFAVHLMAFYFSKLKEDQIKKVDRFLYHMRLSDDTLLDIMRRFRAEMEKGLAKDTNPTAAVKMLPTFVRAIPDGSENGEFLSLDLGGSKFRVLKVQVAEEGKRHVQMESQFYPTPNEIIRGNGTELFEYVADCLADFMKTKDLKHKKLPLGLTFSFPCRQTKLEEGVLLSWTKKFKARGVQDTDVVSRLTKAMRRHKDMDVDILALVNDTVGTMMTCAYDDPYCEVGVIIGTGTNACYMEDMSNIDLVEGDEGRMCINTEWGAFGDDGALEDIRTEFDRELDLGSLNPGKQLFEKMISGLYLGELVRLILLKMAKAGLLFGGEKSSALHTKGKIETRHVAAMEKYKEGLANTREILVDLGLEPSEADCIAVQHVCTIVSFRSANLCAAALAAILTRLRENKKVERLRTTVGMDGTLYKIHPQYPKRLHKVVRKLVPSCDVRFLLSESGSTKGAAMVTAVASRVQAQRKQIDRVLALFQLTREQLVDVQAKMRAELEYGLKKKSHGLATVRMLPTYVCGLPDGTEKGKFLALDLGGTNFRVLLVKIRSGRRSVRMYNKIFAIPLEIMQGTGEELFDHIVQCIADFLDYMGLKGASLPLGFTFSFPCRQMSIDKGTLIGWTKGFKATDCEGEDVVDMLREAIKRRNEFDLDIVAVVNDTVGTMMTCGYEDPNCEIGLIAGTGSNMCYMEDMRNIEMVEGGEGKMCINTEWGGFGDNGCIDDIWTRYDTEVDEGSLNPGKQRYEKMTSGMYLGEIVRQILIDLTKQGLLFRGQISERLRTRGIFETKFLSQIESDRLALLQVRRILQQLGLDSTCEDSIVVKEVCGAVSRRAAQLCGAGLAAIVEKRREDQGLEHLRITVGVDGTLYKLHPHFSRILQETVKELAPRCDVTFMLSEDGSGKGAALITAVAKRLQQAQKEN

[1] = biological target: T2, Sentrin-specific protease 7 (Homo sapiens, UniProt Q9BQF6);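 note: Luminescence-based dose-response confirmation of ultra-high-throughput screening hits, measuring inhibition of SENP7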
T2 sequence (Q9BQF6 whole entry): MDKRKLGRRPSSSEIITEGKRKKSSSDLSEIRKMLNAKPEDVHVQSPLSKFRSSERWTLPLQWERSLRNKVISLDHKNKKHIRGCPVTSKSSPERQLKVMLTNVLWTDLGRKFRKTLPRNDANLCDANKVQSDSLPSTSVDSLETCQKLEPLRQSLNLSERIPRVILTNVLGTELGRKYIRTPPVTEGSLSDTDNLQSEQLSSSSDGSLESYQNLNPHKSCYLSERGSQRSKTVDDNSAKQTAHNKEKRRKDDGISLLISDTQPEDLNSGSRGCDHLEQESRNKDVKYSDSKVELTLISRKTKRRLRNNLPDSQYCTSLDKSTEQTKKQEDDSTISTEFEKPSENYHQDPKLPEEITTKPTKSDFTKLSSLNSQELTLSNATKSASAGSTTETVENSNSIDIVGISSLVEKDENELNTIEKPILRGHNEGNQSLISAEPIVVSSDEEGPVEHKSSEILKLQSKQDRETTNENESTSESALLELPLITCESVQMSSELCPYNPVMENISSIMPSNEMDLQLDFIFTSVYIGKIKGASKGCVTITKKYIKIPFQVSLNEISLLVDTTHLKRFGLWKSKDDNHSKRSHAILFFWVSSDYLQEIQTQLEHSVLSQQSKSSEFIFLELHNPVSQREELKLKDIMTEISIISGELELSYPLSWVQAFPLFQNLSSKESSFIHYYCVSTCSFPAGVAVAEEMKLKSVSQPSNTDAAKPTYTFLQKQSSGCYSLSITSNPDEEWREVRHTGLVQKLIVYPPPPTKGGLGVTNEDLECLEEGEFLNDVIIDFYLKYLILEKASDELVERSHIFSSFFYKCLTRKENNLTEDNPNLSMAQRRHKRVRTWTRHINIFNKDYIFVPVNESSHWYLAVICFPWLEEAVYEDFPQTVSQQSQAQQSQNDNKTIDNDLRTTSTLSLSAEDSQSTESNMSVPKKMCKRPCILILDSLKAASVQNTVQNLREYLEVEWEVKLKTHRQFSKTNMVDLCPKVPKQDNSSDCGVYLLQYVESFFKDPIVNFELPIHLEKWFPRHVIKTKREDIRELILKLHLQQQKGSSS

[2] = biological target: Maternal embryonic leucine zipper kinase (Homo sapiens, UniProt Q14680)
[3] = biological target: MAP kinase-activated protein kinase 5 (Homo sapiens, UniProt Q8IW41);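 note: measured as one member of a kinome panel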
[4] = biological target: Serine/threonine-protein kinase BRSK1 (Homo sapiens, UniProt Q8TDC3);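 note: measured within a kinome-wide kinase panel, with the target listed as KIAA1811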
[5] = biological target: Vascular endothelial growth factor receptor 3 (Homo sapiens, UniProt P35916);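 note: value from a kinome-wide profiling panel, with FLT4 as the panel member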
[6] = biological target: Cell division cycle 7-related protein kinase (Homo sapiens, UniProt O00311);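 note: value obtained from a kinome-wide kinase panel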
[7] = biological target: Serine/threonine-protein kinase PLK3 (Homo sapiens, UniProt Q9H4B4)
[8] = biological target: Glycogen synthase kinase-3 alpha (Homo sapiens, UniProt P49840);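 note: GSK3A result taken from a broad kinome-wide kinase panel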
[9] = biological target: MAP kinase-activated protein kinase 2 (Homo sapiens, UniProt P49137);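 note: measured as one member of a kinome-wide kinase panel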
[10] = biological target: Receptor tyrosine-protein kinase erbB-2 (Homo sapiens, UniProt P04626); test: Navigating the Kinome. Panel member name: ERBB2
[11] = biological target: Serine/threonine-protein kinase pim-1 (Homo sapiens, UniProt P11309)
[12] = biological target: Lymphokine-activated killer T-cell-originated protein kinase (Homo sapiens, UniProt Q96KB5);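 note: value comes from a kinase panel screen in which TOPK was one of the panel members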
[13] = biological target: Serine/threonine-protein kinase Chk2 (Homo sapiens, UniProt O96017);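 note: CHEK2 entry within a kinome-wide screening panel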
Chain of Serine/threonine-protein kinase Chk2 (O96017 whole entry): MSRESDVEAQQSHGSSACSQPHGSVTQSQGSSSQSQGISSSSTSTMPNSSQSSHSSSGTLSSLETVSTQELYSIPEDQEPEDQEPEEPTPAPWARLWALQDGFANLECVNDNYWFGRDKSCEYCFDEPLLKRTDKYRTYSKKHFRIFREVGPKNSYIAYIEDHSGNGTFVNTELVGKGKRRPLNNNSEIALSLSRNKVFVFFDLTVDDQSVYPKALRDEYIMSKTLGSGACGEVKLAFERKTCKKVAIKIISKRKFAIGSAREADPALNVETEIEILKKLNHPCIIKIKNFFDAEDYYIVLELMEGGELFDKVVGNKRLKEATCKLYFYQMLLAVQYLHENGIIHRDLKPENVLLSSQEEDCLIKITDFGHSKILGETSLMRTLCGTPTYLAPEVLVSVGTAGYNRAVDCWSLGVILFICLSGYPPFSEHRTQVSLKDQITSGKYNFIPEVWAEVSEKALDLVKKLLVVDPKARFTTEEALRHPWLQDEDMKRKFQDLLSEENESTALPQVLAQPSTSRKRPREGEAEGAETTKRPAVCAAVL

Chain of Cell division cycle 7-related protein kinase (O00311 whole entry): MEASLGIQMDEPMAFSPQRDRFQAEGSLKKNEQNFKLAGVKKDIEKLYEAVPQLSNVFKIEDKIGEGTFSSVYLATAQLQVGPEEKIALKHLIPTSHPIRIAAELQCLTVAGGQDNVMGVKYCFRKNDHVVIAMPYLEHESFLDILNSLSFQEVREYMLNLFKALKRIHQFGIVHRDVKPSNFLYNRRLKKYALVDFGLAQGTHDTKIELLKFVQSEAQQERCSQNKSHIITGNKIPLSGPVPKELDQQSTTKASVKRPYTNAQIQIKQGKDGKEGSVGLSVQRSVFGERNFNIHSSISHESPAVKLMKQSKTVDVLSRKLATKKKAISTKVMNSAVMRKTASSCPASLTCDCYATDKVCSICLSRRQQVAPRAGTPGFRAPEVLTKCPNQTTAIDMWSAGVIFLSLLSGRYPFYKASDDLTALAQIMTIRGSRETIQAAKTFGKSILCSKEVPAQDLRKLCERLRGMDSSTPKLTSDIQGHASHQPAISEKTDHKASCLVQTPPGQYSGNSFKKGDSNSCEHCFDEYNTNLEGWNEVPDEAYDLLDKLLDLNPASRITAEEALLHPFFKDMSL
Chain of MAP kinase-activated protein kinase 2 (P49137 whole entry): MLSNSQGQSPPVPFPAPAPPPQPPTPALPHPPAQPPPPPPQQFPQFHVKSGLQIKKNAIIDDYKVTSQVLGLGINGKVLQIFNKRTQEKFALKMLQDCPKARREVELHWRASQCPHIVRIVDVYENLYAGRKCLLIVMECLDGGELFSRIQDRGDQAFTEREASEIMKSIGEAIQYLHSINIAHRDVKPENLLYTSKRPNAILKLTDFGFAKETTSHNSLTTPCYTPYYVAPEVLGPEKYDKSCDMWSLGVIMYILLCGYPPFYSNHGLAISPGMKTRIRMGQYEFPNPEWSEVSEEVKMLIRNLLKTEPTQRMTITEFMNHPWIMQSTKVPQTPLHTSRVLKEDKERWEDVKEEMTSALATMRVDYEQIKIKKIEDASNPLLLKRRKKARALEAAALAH
Chain of Maternal embryonic leucine zipper kinase (Q14680 whole entry): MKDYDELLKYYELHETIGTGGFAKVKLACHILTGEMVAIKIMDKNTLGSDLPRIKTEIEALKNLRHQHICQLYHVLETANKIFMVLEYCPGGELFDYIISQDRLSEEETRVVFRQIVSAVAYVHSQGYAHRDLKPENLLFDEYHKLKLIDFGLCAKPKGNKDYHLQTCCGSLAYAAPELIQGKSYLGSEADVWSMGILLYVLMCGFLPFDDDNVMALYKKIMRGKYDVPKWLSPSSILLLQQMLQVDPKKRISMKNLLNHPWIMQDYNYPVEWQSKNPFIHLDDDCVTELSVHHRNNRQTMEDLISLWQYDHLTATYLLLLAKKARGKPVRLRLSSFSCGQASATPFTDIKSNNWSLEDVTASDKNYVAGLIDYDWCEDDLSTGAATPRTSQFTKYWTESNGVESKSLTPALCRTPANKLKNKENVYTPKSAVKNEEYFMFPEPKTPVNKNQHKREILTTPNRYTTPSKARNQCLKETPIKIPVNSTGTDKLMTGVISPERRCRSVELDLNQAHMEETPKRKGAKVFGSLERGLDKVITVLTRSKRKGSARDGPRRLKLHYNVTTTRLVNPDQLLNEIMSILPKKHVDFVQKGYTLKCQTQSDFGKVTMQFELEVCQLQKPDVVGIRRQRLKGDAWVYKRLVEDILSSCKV
Chain of Vascular endothelial growth factor receptor 3 (P35916 whole entry): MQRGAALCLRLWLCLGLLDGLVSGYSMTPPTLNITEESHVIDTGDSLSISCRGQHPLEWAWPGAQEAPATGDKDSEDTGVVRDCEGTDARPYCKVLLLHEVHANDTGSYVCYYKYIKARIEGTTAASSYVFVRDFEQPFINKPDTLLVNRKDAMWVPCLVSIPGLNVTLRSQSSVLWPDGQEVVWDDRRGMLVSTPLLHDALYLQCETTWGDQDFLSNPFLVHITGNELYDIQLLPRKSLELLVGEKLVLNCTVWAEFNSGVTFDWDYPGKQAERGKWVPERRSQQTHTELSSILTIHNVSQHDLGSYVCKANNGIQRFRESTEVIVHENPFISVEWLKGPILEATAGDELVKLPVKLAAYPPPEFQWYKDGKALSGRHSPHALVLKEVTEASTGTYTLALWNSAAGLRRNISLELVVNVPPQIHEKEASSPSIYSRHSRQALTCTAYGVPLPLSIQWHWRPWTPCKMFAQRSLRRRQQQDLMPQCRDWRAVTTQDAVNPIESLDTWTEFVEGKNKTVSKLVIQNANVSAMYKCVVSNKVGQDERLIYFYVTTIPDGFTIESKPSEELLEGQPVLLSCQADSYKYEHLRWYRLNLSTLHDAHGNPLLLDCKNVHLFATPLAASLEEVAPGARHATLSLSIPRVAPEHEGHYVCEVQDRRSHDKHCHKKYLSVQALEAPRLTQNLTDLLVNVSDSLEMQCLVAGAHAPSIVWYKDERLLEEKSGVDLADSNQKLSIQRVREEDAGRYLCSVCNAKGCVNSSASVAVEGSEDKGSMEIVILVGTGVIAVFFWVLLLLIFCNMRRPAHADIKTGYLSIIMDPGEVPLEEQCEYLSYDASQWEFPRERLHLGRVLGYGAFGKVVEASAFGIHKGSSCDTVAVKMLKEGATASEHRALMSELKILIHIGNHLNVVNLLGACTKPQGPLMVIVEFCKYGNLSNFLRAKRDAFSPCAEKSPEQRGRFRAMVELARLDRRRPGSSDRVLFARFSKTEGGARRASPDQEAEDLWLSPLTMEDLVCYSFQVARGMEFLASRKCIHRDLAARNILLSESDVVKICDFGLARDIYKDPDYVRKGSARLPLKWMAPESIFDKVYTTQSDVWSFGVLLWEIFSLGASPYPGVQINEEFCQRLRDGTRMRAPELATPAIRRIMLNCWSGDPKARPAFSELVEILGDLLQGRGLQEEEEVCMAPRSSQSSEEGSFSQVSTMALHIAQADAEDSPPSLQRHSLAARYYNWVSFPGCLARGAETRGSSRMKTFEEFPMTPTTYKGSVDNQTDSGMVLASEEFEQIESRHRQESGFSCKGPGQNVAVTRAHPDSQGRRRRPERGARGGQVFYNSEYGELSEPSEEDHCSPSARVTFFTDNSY
Chain of Glycogen synthase kinase-3 alpha (P49840 whole entry): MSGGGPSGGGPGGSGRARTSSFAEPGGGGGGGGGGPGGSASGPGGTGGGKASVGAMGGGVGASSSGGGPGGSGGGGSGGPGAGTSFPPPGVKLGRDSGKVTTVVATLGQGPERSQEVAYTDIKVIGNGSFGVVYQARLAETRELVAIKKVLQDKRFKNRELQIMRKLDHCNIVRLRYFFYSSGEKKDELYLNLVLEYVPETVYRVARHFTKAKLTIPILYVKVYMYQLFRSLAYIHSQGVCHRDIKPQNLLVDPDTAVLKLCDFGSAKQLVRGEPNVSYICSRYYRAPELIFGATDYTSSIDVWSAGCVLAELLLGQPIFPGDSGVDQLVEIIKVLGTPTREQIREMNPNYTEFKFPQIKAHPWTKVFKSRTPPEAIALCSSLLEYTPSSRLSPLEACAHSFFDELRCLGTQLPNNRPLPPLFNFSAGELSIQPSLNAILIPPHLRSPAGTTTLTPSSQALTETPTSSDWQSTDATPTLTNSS
Chain of Serine/threonine-protein kinase pim-1 (P11309 whole entry): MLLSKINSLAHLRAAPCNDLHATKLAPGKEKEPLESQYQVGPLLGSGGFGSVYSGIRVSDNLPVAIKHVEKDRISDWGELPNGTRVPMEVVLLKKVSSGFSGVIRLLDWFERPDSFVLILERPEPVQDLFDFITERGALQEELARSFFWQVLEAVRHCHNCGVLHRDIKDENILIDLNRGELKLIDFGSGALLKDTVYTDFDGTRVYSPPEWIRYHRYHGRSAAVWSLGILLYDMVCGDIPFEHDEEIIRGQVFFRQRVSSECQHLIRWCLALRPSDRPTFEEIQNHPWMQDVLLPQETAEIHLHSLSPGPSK
Chain of Lymphokine-activated killer T-cell-originated protein kinase (Q96KB5 whole entry): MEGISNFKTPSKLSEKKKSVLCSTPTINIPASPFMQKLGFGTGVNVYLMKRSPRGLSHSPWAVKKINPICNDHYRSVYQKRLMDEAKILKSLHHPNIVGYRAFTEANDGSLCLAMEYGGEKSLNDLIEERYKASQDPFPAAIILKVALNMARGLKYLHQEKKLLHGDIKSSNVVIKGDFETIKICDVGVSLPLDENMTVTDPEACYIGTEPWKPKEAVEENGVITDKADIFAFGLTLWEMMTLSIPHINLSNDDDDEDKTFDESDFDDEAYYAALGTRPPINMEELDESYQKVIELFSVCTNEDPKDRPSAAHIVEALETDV

O=[N+]([O-])c1c(Nc2ccccn2)cc(Cl)c2nonc12
active: CC50 (Vero) 16.8 µM

Cc1ccc(S(=O)(=O)/N=C2\C=C(Nc3cccc(C(=O)O)c3)C(=O)c3ccccc32)cc1
active: IC50 (Hexokinase HKDC1) 4.31 µM

Cc1ccc(C(=O)NC2(O)C(=O)c3ccccc3C2=O)cc1C
active: IC50 [1] 4.4 µM

CC(C)(CO)CNc1nccc(-c2c(-c3ccc(F)cc3)nc3c(CC4CC4)nccn23)n1
active: Ki [12] 0.316 µM
inactive: Ki [2] > 1.58 µM | Ki [3] > 1.58 µM | Ki [4] > 10 µM | Ki [5] > 6.31 µM | Ki [6] > 1.26 µM | Ki [7] > 7.94 µM | Ki [8] > 7.94 µM | Ki [9] > 7.94 µM | Ki [10] > 1.58 µM | Ki [11] > 10 µM | Ki [13] > 5.01 µM

Reference: ChEMBL document CHEMBL1201862, “PubChem BioAssay data set” (2004)
